These are literature values, as cited in US20080213192A1, “AEROSOL LOTION FORMULATIONS” (Schering-Plough Healthcare Products, Inc., priority 2006, published 2008).

Some results are limits rather than exact numbers.

The conditions of the data set: Raval and Parrott, J. Pharm. Sci. 1967.

On to `COC(=O)c1ccc(O)cc1` [methylparaben], for which the “pH above which methylparaben hydrolyzes” value is on record as greater than 6.
